Data as given in ChEMBL document CHEMBL3991601, “The target landscape of clinical kinase drugs” (Science, 2017).
Activity calls are given as the source filed them. Cut-off read from the data, not from the text of the source, for most assays here: actives have a measured Kd and inactives only a lower limit.

Columns and labels:
[1] = biological target: Protein kinase C beta type (Homo sapiens, UniProt P05771)
[2] = biological target: T1, Dynamin-like GTPase OPA1, mitochondrial (Homo sapiens, UniProt O60313)
T1 sequence (O60313 whole entry): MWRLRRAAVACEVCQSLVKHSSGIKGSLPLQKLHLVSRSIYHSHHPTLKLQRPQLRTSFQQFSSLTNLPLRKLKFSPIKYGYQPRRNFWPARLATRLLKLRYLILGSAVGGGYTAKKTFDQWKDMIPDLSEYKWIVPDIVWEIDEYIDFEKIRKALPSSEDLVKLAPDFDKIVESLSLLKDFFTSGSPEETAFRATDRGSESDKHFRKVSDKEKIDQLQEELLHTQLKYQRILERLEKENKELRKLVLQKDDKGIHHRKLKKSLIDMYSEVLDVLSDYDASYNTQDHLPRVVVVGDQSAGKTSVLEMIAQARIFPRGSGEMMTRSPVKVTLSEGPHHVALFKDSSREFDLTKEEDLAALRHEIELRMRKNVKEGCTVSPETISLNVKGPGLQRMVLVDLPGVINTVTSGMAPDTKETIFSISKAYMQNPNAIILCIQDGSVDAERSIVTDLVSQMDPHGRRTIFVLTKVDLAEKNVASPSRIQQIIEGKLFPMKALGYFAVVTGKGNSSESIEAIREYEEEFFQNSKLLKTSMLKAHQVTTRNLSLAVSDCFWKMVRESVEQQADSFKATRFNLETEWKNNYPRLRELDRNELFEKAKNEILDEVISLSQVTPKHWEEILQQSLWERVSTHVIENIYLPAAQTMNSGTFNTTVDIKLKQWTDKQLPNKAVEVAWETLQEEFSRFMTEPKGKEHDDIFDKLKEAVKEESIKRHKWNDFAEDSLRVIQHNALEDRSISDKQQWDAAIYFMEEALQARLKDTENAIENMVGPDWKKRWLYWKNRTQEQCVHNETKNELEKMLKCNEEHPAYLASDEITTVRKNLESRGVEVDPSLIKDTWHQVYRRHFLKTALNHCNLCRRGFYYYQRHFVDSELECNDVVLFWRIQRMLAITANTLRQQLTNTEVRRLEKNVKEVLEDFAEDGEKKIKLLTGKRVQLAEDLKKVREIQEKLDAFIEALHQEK

[3] = biological target: Serine/threonine-protein kinase N1 (Homo sapiens, UniProt Q16512)
Aurora kinase B = Aurora kinase B (Homo sapiens, UniProt Q96GD4)
[4] = biological target: T2, Serine/threonine-protein kinase TAO3 (Homo sapiens, UniProt Q9H2K8)
T2 sequence (Q9H2K8 whole entry): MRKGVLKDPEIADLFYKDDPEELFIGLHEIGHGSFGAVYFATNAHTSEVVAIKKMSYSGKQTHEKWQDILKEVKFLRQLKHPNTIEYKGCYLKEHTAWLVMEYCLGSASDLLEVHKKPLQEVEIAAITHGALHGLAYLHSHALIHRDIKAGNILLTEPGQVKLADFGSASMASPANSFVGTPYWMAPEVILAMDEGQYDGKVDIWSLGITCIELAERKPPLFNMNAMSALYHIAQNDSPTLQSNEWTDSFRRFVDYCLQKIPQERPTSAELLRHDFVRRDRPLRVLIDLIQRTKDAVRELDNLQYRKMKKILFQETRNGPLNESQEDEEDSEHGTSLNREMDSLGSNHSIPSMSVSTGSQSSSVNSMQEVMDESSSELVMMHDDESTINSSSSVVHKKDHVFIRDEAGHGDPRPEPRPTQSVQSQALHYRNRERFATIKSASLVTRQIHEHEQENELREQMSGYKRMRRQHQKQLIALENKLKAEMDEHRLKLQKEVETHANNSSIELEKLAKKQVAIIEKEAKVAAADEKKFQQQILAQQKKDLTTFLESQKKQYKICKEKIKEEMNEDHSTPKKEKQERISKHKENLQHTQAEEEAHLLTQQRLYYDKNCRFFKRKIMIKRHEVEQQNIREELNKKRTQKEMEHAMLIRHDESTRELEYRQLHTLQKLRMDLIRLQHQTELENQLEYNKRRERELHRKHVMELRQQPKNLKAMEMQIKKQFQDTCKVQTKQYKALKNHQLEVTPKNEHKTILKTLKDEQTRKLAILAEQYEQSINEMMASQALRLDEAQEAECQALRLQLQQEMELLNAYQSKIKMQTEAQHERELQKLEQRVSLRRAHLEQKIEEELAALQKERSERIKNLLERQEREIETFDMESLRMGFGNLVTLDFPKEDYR

Myosin-14 = Myosin-14 (Homo sapiens, UniProt Q7Z406)
Note: in the data inactive means no Kd found up to 30 µM.

Chain of Myosin-14 (Q7Z406 whole entry): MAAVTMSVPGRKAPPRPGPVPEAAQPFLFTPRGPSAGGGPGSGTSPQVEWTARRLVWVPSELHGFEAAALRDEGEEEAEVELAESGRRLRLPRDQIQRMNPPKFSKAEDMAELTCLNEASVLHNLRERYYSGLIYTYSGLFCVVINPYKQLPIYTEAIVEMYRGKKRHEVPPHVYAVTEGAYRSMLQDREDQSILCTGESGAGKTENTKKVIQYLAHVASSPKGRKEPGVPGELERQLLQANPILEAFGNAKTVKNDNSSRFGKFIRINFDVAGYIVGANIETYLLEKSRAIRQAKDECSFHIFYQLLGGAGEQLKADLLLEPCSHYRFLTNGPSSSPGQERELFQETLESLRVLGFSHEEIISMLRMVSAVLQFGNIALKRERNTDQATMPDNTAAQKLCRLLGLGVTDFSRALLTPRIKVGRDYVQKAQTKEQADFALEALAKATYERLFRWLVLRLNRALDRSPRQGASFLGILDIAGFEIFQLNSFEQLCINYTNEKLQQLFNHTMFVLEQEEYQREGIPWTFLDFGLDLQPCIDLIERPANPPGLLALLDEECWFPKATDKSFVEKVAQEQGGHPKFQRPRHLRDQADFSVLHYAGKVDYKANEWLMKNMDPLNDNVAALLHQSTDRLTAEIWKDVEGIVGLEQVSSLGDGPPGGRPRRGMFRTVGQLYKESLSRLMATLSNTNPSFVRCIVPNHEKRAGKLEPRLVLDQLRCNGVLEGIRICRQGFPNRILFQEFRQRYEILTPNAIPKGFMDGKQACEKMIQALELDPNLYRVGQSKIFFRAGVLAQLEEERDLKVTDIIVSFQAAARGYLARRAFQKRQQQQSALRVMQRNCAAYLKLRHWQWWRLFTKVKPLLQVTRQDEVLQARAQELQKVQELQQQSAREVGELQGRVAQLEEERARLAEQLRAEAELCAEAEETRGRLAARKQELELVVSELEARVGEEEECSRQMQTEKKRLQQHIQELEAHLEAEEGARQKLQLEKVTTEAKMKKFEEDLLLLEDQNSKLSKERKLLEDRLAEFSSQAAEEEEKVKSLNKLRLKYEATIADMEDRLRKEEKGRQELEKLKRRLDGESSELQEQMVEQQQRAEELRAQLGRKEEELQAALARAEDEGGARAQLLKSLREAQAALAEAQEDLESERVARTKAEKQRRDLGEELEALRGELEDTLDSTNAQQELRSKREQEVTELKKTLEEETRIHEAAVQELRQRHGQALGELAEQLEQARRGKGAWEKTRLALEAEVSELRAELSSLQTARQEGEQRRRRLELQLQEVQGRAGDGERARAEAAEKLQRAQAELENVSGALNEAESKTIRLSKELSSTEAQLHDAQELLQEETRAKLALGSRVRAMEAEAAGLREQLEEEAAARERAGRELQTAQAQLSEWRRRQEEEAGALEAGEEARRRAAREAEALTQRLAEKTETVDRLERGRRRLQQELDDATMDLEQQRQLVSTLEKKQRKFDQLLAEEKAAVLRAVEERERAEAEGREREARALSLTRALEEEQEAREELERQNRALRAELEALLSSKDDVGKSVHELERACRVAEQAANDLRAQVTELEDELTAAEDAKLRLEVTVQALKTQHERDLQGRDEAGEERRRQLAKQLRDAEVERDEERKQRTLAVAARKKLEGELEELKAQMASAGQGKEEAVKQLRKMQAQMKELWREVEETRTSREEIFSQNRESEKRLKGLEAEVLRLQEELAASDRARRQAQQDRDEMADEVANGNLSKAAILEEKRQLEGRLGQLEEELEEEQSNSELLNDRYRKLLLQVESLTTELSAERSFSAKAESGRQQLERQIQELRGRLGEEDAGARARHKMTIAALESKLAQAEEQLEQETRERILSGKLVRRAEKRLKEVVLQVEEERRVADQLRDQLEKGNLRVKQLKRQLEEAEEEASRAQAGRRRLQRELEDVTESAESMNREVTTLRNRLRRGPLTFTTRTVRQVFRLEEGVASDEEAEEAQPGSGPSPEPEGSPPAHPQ
Chain of Aurora kinase B (Q96GD4 whole entry): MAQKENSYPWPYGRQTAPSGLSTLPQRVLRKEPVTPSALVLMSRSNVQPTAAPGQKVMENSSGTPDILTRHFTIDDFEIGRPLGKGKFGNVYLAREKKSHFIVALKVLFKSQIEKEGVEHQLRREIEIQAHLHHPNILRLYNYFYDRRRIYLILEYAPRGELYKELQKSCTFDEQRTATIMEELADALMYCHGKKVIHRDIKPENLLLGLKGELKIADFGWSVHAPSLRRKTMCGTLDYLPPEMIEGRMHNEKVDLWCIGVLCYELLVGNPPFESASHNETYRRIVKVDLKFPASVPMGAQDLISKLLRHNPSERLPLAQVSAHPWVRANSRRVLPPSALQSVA
Chain of Serine/threonine-protein kinase N1 (Q16512 whole entry): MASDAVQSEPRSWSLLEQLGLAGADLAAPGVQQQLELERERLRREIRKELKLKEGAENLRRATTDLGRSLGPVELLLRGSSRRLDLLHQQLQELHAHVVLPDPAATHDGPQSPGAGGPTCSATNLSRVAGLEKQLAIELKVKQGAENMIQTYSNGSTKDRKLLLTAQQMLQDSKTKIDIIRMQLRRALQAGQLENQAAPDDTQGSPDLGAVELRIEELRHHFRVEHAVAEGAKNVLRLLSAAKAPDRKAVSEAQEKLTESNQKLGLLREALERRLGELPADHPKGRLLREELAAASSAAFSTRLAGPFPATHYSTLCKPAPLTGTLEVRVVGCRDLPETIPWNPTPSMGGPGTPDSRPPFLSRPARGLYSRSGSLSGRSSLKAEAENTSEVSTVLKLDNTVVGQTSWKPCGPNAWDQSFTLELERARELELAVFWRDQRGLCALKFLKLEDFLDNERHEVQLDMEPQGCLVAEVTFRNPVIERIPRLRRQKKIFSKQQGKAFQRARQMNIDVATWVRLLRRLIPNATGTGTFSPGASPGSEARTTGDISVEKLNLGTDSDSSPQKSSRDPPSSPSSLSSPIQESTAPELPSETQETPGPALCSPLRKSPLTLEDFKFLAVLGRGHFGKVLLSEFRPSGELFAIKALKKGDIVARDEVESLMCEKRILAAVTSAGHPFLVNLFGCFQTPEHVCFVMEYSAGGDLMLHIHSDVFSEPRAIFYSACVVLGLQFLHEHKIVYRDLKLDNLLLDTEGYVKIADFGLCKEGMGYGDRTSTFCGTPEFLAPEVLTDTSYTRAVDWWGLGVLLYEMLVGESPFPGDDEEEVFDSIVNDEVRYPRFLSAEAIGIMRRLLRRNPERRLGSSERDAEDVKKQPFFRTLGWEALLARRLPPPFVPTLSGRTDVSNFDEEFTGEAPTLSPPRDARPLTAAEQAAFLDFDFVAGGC
Chain of Protein kinase C beta type (P05771 whole entry): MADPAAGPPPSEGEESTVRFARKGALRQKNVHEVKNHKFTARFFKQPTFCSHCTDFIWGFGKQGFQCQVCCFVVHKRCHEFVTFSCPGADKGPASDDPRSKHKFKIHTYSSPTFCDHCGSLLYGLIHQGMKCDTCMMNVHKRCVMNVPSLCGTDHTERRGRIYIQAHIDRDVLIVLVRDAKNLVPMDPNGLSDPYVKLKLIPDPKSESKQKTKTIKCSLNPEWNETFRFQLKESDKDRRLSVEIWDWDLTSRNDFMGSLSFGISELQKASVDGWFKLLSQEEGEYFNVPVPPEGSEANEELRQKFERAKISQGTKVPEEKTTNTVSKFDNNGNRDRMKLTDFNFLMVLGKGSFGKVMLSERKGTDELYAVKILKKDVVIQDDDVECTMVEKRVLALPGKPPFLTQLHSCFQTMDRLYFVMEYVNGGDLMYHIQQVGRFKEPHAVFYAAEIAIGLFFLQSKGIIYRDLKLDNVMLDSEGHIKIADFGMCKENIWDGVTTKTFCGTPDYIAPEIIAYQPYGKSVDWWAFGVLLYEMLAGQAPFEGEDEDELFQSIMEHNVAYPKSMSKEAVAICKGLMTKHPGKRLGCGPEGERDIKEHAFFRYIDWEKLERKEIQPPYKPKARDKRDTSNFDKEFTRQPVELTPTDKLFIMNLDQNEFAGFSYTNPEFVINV

SMILES | Kd [1] | Kd [2] | Kd [3] | Kd (Aurora kinase B) | Kd [4] | Kd (Myosin-14)
Cc1cc(C(=O)NOCCO)c(Nc2ccc(I)cc2F)n(C)c1=O [AZD-8330] | > 30 µM (inactive) | > 30 µM (inactive) | > 30 µM (inactive) | > 30 µM (inactive) | > 30 µM (inactive) | > 30 µM (inactive)
Cn1cnc2c(F)c(Nc3ccc(Br)cc3F)c(C(=O)NOCCO)cc21 [BINIMETINIB] | > 30 µM (inactive) | > 30 µM (inactive) | > 30 µM (inactive) | > 30 µM (inactive) | > 30 µM (inactive) | > 30 µM (inactive)
CCn1c(C(=O)N(C2CC2)C2CC2)cc2c3c(ncn3C)c(Nc3cc(C)n(C)n3)nc21 [BMS-911543] | > 30 µM (inactive) | > 30 µM (inactive) | > 30 µM (inactive) | > 30 µM (inactive) | > 30 µM (inactive) | > 30 µM (inactive)
COc1cc2ncnc(Oc3cccc(NC(=O)Nc4cc(C(C)(C)C(F)(F)F)on4)c3)c2cc1OC [CEP-32496] | > 30 µM (inactive) | > 30 µM (inactive) | > 30 µM (inactive) | > 30 µM (inactive) | > 30 µM (inactive) | > 30 µM (inactive)
Cc1cc(Nc2ncc(Cl)c(Nc3ccccc3S(=O)(=O)C(C)C)n2)c(OC(C)C)cc1C1CCNCC1 [CERITINIB] | > 30 µM (inactive) | > 30 µM (inactive) | > 30 µM (inactive) | > 30 µM (inactive) | > 30 µM (inactive) | > 30 µM (inactive)
COc1c(OCCCN2CCOCC2)ccc2c1N=C(NC(=O)c1cnc(N)nc1)N1CCN=C21 [COPANLISIB] | > 30 µM (inactive) | > 30 µM (inactive) | > 30 µM (inactive) | > 30 µM (inactive) | > 30 µM (inactive) | > 30 µM (inactive)
COCC(=O)NC/C=C/c1ccc2ncnc(Nc3ccc(Oc4ccc(C)nc4)c(C)c3)c2c1 [CP-724714] | > 30 µM (inactive) | > 30 µM (inactive) | > 30 µM (inactive) | > 30 µM (inactive) | > 30 µM (inactive) | > 30 µM (inactive)
C#Cc1cccc(Nc2ncnc3cc(OC)c(OCCCCCCC(=O)NO)cc23)c1 [CUDC-101] | > 30 µM (inactive) | > 30 µM (inactive) | > 30 µM (inactive) | > 30 µM (inactive) | > 30 µM (inactive) | > 30 µM (inactive)
CC(C)(C)c1nc(-c2cccc(NS(=O)(=O)c3c(F)cccc3F)c2F)c(-c2ccnc(N)n2)s1 [DABRAFENIB] | > 30 µM (inactive) | > 30 µM (inactive) | > 30 µM (inactive) | > 30 µM (inactive) | > 30 µM (inactive) | > 30 µM (inactive)
O=C(Nc1nc2cccc(-c3ccc(CN4CCS(=O)(=O)CC4)cc3)n2n1)C1CC1 [FILGOTINIB] | > 30 µM (inactive) | > 30 µM (inactive) | > 30 µM (inactive) | > 30 µM (inactive) | > 30 µM (inactive) | > 30 µM (inactive)
Cc1cccc(-c2nn3c(c2-c2ccnc4ccc(C(N)=O)cc24)CCC3)n1 [GALUNISERTIB] | > 30 µM (inactive) | > 30 µM (inactive) | > 30 µM (inactive) | > 30 µM (inactive) | > 30 µM (inactive) | > 30 µM (inactive)
CCn1cc(-c2ccnc3[nH]c(-c4cccc(CN(C)C)c4)cc23)c(-c2ccc(NC(=O)N(C)C)cc2)n1 [GSK-1070916] | > 30 µM (inactive) | > 30 µM (inactive) | > 30 µM (inactive) | 0.371 µM (active) | > 30 µM (inactive) | > 30 µM (inactive)
O=C(Nc1cc(C(F)(F)F)cc(C(F)(F)F)c1)c1cc(Cl)ccc1O [IMD-0354] | > 30 µM (inactive) | > 30 µM (inactive) | > 30 µM (inactive) | > 30 µM (inactive) | > 30 µM (inactive) | > 30 µM (inactive)
CNC(=O)c1cccc2cc(Oc3ccnc4cc(OCC5(N)CC5)c(OC)cc34)ccc12 [LUCITANIB] | > 30 µM (inactive) | > 30 µM (inactive) | > 30 µM (inactive) | 22.9 µM (active) | > 30 µM (inactive) | > 30 µM (inactive)
CNC(=O)c1nn(C)c2c1C(C)(C)Cc1cnc(Nc3ccc(N4CCN(C)CC4)cc3)nc1-2 [MILCICLIB] | > 30 µM (inactive) | > 30 µM (inactive) | > 30 µM (inactive) | 7.54 µM | 10.6 µM (active) | > 30 µM (inactive)
NC1(c2ccc(-c3nc4ccn5c(=O)[nH]nc5c4cc3-c3ccccc3)cc2)CCC1 [MK-2206] | > 30 µM (inactive) | > 30 µM (inactive) | > 30 µM (inactive) | > 30 µM (inactive) | > 30 µM (inactive) | > 30 µM (inactive)
CN(C[C@@H]1COCCO1)S(=O)(=O)Nc1ccc2ccc3ncc(-c4cnn(C)c4)cc3c(=O)c2c1 [MK-2461] | > 30 µM (inactive) | > 30 µM (inactive) | > 30 µM (inactive) | > 30 µM (inactive) | > 30 µM (inactive) | > 30 µM (inactive)
Cn1cc(-c2cnc3ccc4ccc(CS(=O)(=O)NCc5ccccn5)cc4c(=O)c3c2)cn1 [MK-8033] | > 30 µM (inactive) | > 30 µM (inactive) | > 30 µM (inactive) | > 30 µM (inactive) | > 30 µM (inactive) | > 30 µM (inactive)
FC(F)(F)c1ccc(/C=C/c2nc(COc3ccc(CCCCn4ccnn4)cc3)co2)cc1 [MUBRITINIB] | > 30 µM (inactive) | > 30 µM (inactive) | > 30 µM (inactive) | > 30 µM (inactive) | > 30 µM (inactive) | > 30 µM (inactive)
COc1ncc(-c2ccc3nccc(-c4ccnnc4)c3c2)cc1NS(=O)(=O)c1ccc(F)cc1F [OMIPALISIB] | > 30 µM (inactive) | > 30 µM (inactive) | > 30 µM (inactive) | > 30 µM (inactive) | > 30 µM (inactive) | > 30 µM (inactive)
CCOc1cc2ncc(C#N)c(Nc3ccc(F)c(Cl)c3)c2cc1NC(=O)/C=C/CN(C)C [PELITINIB] | > 30 µM (inactive) | > 30 µM (inactive) | > 30 µM (inactive) | > 30 µM (inactive) | > 30 µM (inactive) | > 30 µM (inactive)
CCCCCCCCCCCCCCCCCCOP(=O)([O-])OC1CC[N+](C)(C)CC1 [PERIFOSINE] | > 30 µM (inactive) | > 30 µM (inactive) | > 30 µM (inactive) | > 30 µM (inactive) | > 30 µM (inactive) | > 30 µM (inactive)
Cc1cnc(NC(=O)Nc2cc(Br)c(C)cc2OC[C@@H]2CNCCO2)cn1 [RABUSERTIB] | > 30 µM (inactive) | > 30 µM (inactive) | > 30 µM (inactive) | > 30 µM (inactive) | > 30 µM (inactive) | > 30 µM (inactive)
CNC(=O)c1cc(Oc2ccc(NC(=O)Nc3cc(C(C)(C)C)nn3-c3ccc4ncccc4c3)c(F)c2)ccn1 [REBASTINIB] | > 30 µM (inactive) | > 30 µM (inactive) | > 30 µM (inactive) | > 30 µM (inactive) | 14.2 µM (active) | > 30 µM (inactive)
